Source: PMC11926880, “Procognitive Potential of Neuroprotective Triazine 5-HT6 Receptor Antagonists Tested on Chronic Activity In Vivo in Rats: Computer-Aided Insight into the Role of Chalcogen-Differences on the Pharmacological Profile” (ACS Chemical Neuroscience, 2025)
Like-named read-outs stand apart in the source and are kept apart here.

Key:
rats [1] = experiment: NORT after 21 day administration, discrimination index; format: in vivo, rat; conditions: for reversal of (+)MK-801-induced memory disturbances (DI): (+)MK-801 0.1 mg/kg
Description: Standard laboratory food (LSM-B) and filtered water as well as environment enrichment were freely available. Animals were randomly divided into treatment groups using a computer-based random order generator. All of the experiments were performed by two observers unaware of the treatment applied between 9:00 and 14:00 on separate groups of animals.
In the NOR test (NORT), rats were randomly divided into experimental groups (n = 8/group). […] All compounds were prepared immediately before administration and were injected intraperitoneally (i.p.) in a constant volume of 2 mL/kg. […] The control group received 1% Tween 80 on the same schedule.
The test was carried out according to the method described by Ennaceur.[46] NORT was conducted in two black-painted wood boxes (60 cm × 60 cm × 60 cm). A video camera mounted above the boxes recorded all experiments. Two days before the test, the rats were placed in the empty experimental boxes for 5 min as a habituation to the test area. On the third day, the test was performed in 2 trials lasting for 3 min at one-hour intervals. First session, familiarization (T1) with two identical objects (A1 and A2) located in the opposite corners of the boxes, approximately 10 cm from the walls, and second trial, recognition (T2) with one familiar (A) and one novel object (B). Metal cans and glass jars with sand were used as the objects. The boxes were cleaned and dried after each measurement. The exploration time (E) of the objects (such as looking, licking, sniffing, or touching while sniffing) during T2 was measured, and the discrimination index (DI) was calculated according to the following formula: DI = (EB – EA)/(EA + EB).
The normality of data distribution and the homogeneity of variance were checked using the Shapiro–Wilk’s test and Levene’s test, respectively. All behavioral results are shown as the means ± SEM.

SH-SY5Y cells [2] = experiment: MTS assay 72 h, neurotoxic effect; format: cell-based, human; conditions: 10 and 50 μM
Description: SHSY5Y cells were grown in DMEM supplemented by 10% FBS, L-glutamine (2 mM), and penicillin (100u/mL)/streptomycin (100 μg/mL). The cell line was tested for mycoplasma using DAPI staining and the LookOut Mycoplasma PCR Detection Kit (MP0035, Merck). The cell line was authenticated after thawing by a morphology check, cell proliferation rate evaluation, and species verification by PCR. Bacteria contamination was excluded. […] Subsequently, cells were subjected to a CellTiter 96 AQueous One Solution Cell Proliferation Assay (Promega), according to the manufacturer’s protocol. The absorbance at 490 nm was evaluated to estimate the cell number.

SH-SY5Y cells [3] = experiment: qRT-PCR of neurodegeneration-associated genes; format: cell-based, human; conditions: 24 h
NRF2 = experiment: Western blot for NRF2 (total and nuclear extracts); format: cell-based, human; conditions: 10 μM, 24 h
HT-22 cell line [4] = experiment: protection against Aβ1–42, cell membrane damage (ToxiLight); format: cell-based, mouse; conditions: 10 μM pretreatment 1 h, Aβ1–42 35 μM 16 h
Description: Cells were cultured in Dulbecco’s modified Eagle’s Medium-high glucose (DMEM, GlutaMAX ThermoFisher) supplemented with 10% inactivated fetal bovine serum heat (Thermo Fisher), 100 IU/mL penicillin (Merck), and 100 μg/mL streptomycin (Merck). Cells were cultured in flasks (area 175 cm^2, Nunc) and incubated at 37 °C, 5% CO2. To measure the neuroprotective effect against Aβ1–42, cells were placed in a 96-well culture plate (5 × 10^3 cells per well, Falcon). To measure the toxicity of tested compounds, cells were placed in a 96-well culture plate (5 × 10^3 and 2 × 10^4 cells per well, Falcon).
Stock solutions were prepared at a concentration of 10 mM for the tested compounds. A minimum of 1 mg of each tested compound was weighed and dissolved in an appropriate volume of dimethyl sulfoxide (DMSO). Serial dilutions were prepared in DMSO, and then, the diluted compounds were transferred to phosphate-buffered saline (PBS), mixed, and put into a medium with adherent cells. Before the assays, eventual precipitation or opalescence was checked. […]
Then, 20 μL of adenylate kinase detection reagent was added. The luminescence was measured after 10 min of incubation with a plate reader, POLARstar Omega (BMG Labtech). The results are expressed as a percentage of the control (Aβ1–42), corresponding to the percentage of dead cells concerning the control sample.

HT-22 cell line [5] = experiment: protection against Aβ1–42, ROS (CellROX); format: cell-based, mouse; conditions: 10 μM pretreatment 1 h, Aβ1–42 35 μM 16 h
Description: Cells were cultured in Dulbecco’s modified Eagle’s Medium-high glucose (DMEM, GlutaMAX ThermoFisher) supplemented with 10% inactivated fetal bovine serum heat (Thermo Fisher), 100 IU/mL penicillin (Merck), and 100 μg/mL streptomycin (Merck). Cells were cultured in flasks (area 175 cm^2, Nunc) and incubated at 37 °C, 5% CO2. To measure the neuroprotective effect against Aβ1–42, cells were placed in a 96-well culture plate (5 × 10^3 cells per well, Falcon).
Stock solutions were prepared at a concentration of 10 mM for the tested compounds. A minimum of 1 mg of each tested compound was weighed and dissolved in an appropriate volume of dimethyl sulfoxide (DMSO). Serial dilutions were prepared in DMSO, and then, the diluted compounds were transferred to phosphate-buffered saline (PBS), mixed, and put into a medium with adherent cells. Before the assays, eventual precipitation or opalescence was checked.
Aβ1–42 (Merck) was initially dissolved in 1,1,1,3,3,3- hexafluor-2-propanol (Merck). […] After this time, the Aβ1–42 solution was evaporated by using nitrogen gas. Next, DMSO was added to obtain a 2 mM stock solution of β-amyloid. […]
After the end of incubation with the tested compounds, the supernatant was removed, and cells were incubated with CellROX (5 μM) in DMEM FluoroBrite (ThermoFisher) for 1 h at 37 °C. The results are expressed as a percentage of control (Aβ1–42).

[6] = set-up: method as in PMID 38190615, PMID 35228010; conditions: LC/MS after biotransformation in rLMs; cited from earlier work
HepG2 = system: HepG2; set-up: method as in PMID 38190615, PMID 35228010; conditions: tested at 0.1–100 μM; cited from earlier work
[7] = set-up: method as in PMID 38190615, PMID 35228010; conditions: AMES test; cited from earlier work
SH-SY5Y cells [8] = conditions: 50 μM, 27 h; cited from earlier work
[9] = set-up: method as in PMID 38190615; conditions: serum, cited from earlier work
rats [10] = conditions: acute administration, cited from earlier work
[11] = 1 mg/kg i.p., cited from earlier work
SH-SY5Y cells [12] = experiment: ROS assay (2',7'DCFH2-DA), rotenone-induced neurotoxicity; format: cell-based, human; conditions: ROT 32.5 μM alone, 3 h
Description: The ROS measurement was assayed by 2′,7′-dichlorofluorescin diacetate (2′, 7′DCFH2-DA, Sigma, no. D6883). The protocol was previously described in detail.[10] […] The following day, all treatments were carried out with warmed HBSS containing 25 mM HEPES (hereafter referred to as HBSS), and during the operational steps, the cells were kept at 37 °C to minimize temperature stress.

C[C@]12N[C@H](Cc3ccccc31)c1ccccc12 [(+)MK-801, reference compound]
effect on memory functions (DI) (rats [1]; 0.1 mg/kg i.p. once, 30 min before the test): induced deficits in memory functions

CN1CCN(c2nc(N)nc(C(C)(C)[Se]c3ccc4ccccc4c3)n2)CC1 [PPK-32]
neurotoxic effect (MTS) (SH-SY5Y cells [2]): no significant differences
expression of beta-secretase BACE1 (SH-SY5Y cells [3]; 10 μM): negatively regulate
NRF2 transcription (SH-SY5Y cells [3]; 10 and 50 μM): neither WA-22 nor PPK-32 were able to stimulate its transcription
expression of NQO1, SOD1, and HO1 (SH-SY5Y cells [3]; 10 and 50 μM): induce the expression
expression of pro-inflammatory gene NFkB (SH-SY5Y cells [3]; 10 and 50 μM): neither WA-22 nor PPK-32 were able to downregulate
NRF2 protein amount (total extract) (NRF2; GAPDH loading control): protein amount was not modulated
NRF2 translocation from cytoplasm to nucleus (NRF2; nuclear extracts, H3 loading control): distinctly stronger than that upon WA-22 treatment
protection of cell integrity against membrane destruction caused by Aβ1–42 (HT-22 cell line [4]): slightly more potent than the thioether WA-22
decrease of ROS induced by Aβ (HT-22 cell line [5]): displayed the ability to decrease ROS
reversal of (+)MK-801-induced memory disturbances (DI) (rats [1]; 1 mg/kg/day i.p., 21 days): inactive
reversal of (+)MK-801-induced memory disturbances (DI) (rats [1]; 3 mg/kg/day i.p., 21 days): significantly reversed
metabolic stability, % of remaining structure [6]: 37%
hepatotoxic (statistically significant HepG2 viability decrease) (HepG2): >100 µM
mutagenic [7]: no
reduction of cell viability compared to Ctr (SH-SY5Y cells [8]): 45%
AUC0–∞ ([9]; 1 mg/kg i.p.): 1833.92 ng·min/mL
Cmax ([9]; 1.0 mg/kg i.p.): 34.9 ng/mL
memory-protective action at doses as low as (rats [10]; male Wistar rats, (+)MK-801): 0.3 mg/kg
detected in rat organs up to (time after administration) [11]: up to 120 min
Cmax ([11]; brain, highest value 30 min after administration): 54.9 ng/g
t1/2λz ([11]; liver): 1.42 h

C=C(C)[C@H]1Cc2c(ccc3c2O[C@@H]2COc4cc(OC)c(OC)cc4[C@@H]2C3=O)O1 [ROT, Rotenone, reference compound]
ROS level (Ctr set as 100%) (SH-SY5Y cells [12]): 176%

COc1cc2c(cc1OC)C(=O)C(CC1CCN(Cc3ccccc3)CC1)C2 (stereo not drawn) [donepezil, reference compound]
influence on memory compared to vehicle-treated rats (DI) (rats [1]; 1 mg/kg/day i.p., 21 days, without (+)MK-801): No memory changing
reversal of (+)MK-801-induced memory disturbances (DI) (rats [1]; 1 mg/kg/day i.p., 21 days): reverse memory disturbances
minimal active chronic dose (rats [1]; i.p., 21 days, reversal of (+)MK-801-induced memory impairments): 1 mg/kg/day
active dose in NOR test (significantly reversed MK-801 memory disturbances) (rats [10]; rat): g Dose of a compound that in a statistically significant manner reversed memory disturbances caused by MK-801 in the novel object recognition (NOR) test in rats;[12],[13] active dose for donepezil was 1 mg/kg. mg/kg i.p
